Results reported in patent US20240408169A1 (priority 2023, published 2024).
Where two headings read alike, the source gives them in different places. *1 amine or outer side, *2 acyl side, *3 side chain or, on linkers, in order; H or OH if unused. Where a SMILES comes first, the peptide text is derived from it. Bridges are numbered along the chain shown (N, C = ends). [ ]: non-standard residue; d: D form. The star is where a group is joined. ξ: configuration not given here. X122 = CN([C@@H](Cc1cc(Cl)ccc1C1=CCN(C(=O)C(C)(C)C)CC1)C(=O)[*:2])[*:1]; X160 = CC(=O)N1CC=C(c2ccc(Cl)cc2C[C@@H](C(=O)[*:2])N(C)[*:1])C(C)(C)C1; NMeAla(5-Cl-2-cPrO-3-pyridyl) = CN[C@@H](Cc1cc(Cl)cnc1OC1CC1)C(=O)O; NMePhe(5-Cl,2-O(2-Pym)) = CN[C@@H](Cc1cc(Cl)ccc1Oc1ncccn1)C(=O)O; X123 = CN([C@@H](Cc1cc(Cl)ccc1-c1ccc[nH]c1=O)C(=O)[*:2])[*:1]; NMe3Pal(2-OiBu,5-Cl) = CN[C@@H](Cc1cc(Cl)cnc1OCC(C)C)C(=O)O; NMehhhLys(Me) = CN([C@@H](CCCCCCCN(C)[*:3])C(=O)[*:2])[*:1]; NMe3Pal(2-OiPr,5-Cl) = CN[C@@H](Cc1cc(Cl)cnc1OC(C)C)C(=O)O; X211 = Cc1ncc(-c2ccc(Cl)cc2C[C@@H](C(=O)[*:2])N(C)[*:1])s1; X22 = CN([C@@H](Cc1cc(Cl)ccc1-c1cnn(C)c1)C(=O)[*:2])[*:1]; NMe(hhhLys) = CN([C@@H](CCCCCCCN[*:3])C(=O)[*:2])[*:1]; cBuCO(3,3-F2-1-CF3) = O=C(C1(C(F)(F)F)CC(F)(F)C1)*; NMePhe(2,5-Cl2) = CN[C@@H](Cc1cc(Cl)ccc1Cl)C(=O)O; X25 = CCOc1ncc(Cl)cc1C[C@@H](C(=O)[*:2])N(C)[*:1]; Pro(trans-4-F) = O=C(O)[C@@H]1C[C@@H](F)CN1; Gly(cPr) = N[C@H](C(=O)O)C1CC1; ξGly(cPr) = NC(C(=O)O)C1CC1

Assays:
WI-38 cells = assay: MTT proliferation assay, WI-38; assay type: cell-based; details: 3 days compound exposure, 1:3 serial dilution starting at 10 μM;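 further: Eight- or ten-point dilution series, with exposure length chosen to span about three to four cell doublings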
NCI-H1048 cells = assay: MTT proliferation assay, NCI-H1048; assay type: cell-based; details: 5 days compound exposure, 1:3 serial dilution starting at 10 μM;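 further: Dose-response in 96-well plates over 8 or 10 concentration points, with exposure spanning 3-4 cell doublings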
CyclinB1/CDK1 = biological target: T1, CyclinB1/CDK1 (Homo sapiens, UniProt P14635); assay: Fluorescence Polarization (FP) competitive binding assay, Cyclin B1/Cdk1;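 further: fluorescence polarization read after equilibration at room temperature, with IC50 taken from serially diluted dose-response curves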
T1 construct: purchased Eurofins, discovery 14-450

OVCAR3 cells = assay: MTT proliferation assay, OVCAR3; assay type: cell-based; details: 5 days compound exposure, 1:3 serial dilution starting at 10 μM;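 further: compound given as an 8- or 10-point series, one day after plating, with exposure covering roughly 3-4 cell doublings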
CyclinE1/CDK2 = biological target: T2, CyclinE1/CDK2 (Homo sapiens, UniProt P24864); assay: Fluorescence Polarization (FP) competitive binding assay, Cyclin E1/Cdk2;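 further: readings taken after two-hour equilibration at room temperature in HEPES buffer with NaCl, DTT, NP-40 and BSA, IC50 fitted from eight-concentration serial dilution series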
T2 construct: purchased Eurofins, discovery 14-475

CyclinA2/CDK2 = biological target: T3, CyclinA2/CDK2 (Homo sapiens, UniProt P20248); assay: Fluorescence Polarization (FP) competitive binding assay, Cyclin A2/Cdk2;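 further: plates equilibrated two hours at room temperature before polarization reading, IC50 fitted from eight-concentration compound titration curves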
T3 construct: purchased CRELUX Protein Services

[1] = read-out: Cyclin B FP IC50; 10 nM Cyclin B1/Cdk1, 2 nM FAM probe; average of 2-3 independent experiments
[2] = 10 nM Cyclin B1/Cdk1, 2 nM FAM probe; average of 2-3 independent experiments; read-out: Cyclin B FP IC50
[3] = 10 nM Cyclin E1/Cdk2, 2 nM FAM probe, average of 2-3 independent experiments, read-out: Cyclin E FP IC50
[4] = 8 nM Cyclin A2/Cdk2, 2 nM FAM probe, average of 2-3 independent experiments, read-out: Cyclin A FP IC50

Compound | GI50 (WI-38 cells) [nM] | GI50 (NCI-H1048 cells) [nM] | IC50 (CyclinB1/CDK1; [1]) [nM] | GI50 (OVCAR3 cells) [nM] | IC50 (CyclinE1/CDK2) [nM] | IC50 (CyclinB1/CDK1; [2]) [nM] | IC50 (CyclinE1/CDK2; [3]) [nM] | IC50 (CyclinA2/CDK2; [4]) [nM] | IC50 (CyclinA2/CDK2) [nM]
CCOc1ncc(Cl)cc1C[C@H]1C(=O)N(C)CCCCCCC[C@H](N(C)C(=O)[C@@H](NC(=O)[C@@H]2C[C@@H](F)CN2C(=O)C2(C(F)(F)F)CC(F)(F)C2)C2CC2)C(=O)N[C@@H](CC(C)C)C(=O)N1C [Example 225] ({cBuCO(3,3-F2-1-CF3)}-[Pro(trans-4-F)][Gly(cPr)][NMehhhLys(Me)]L[X25]; lactam 3-C) | 8530 | 20 | 20 | 30 | 190 |  |  |  | 
CC(C)COc1ncc(Cl)cc1C[C@H]1C(=O)N(C)CCCCCCC[C@H](N(C)C(=O)[C@@H](NC(=O)[C@@H]2C[C@@H](F)CN2C(=O)C2(C(F)(F)F)CC(F)(F)C2)C2CC2)C(=O)N[C@@H](CC(C)C)C(=O)N1C [Example 228] ({cBuCO(3,3-F2-1-CF3)}-[Pro(trans-4-F)][Gly(cPr)][NMehhhLys(Me)]L[NMe3Pal(2-OiBu,5-Cl)]; lactam 3-C) | 9540 | 60 | 20 | 80 | 250 |  |  |  | 
CC(C)C[C@@H]1NC(=O)[C@@H](N(C)C(=O)[C@@H](NC(=O)[C@@H]2C[C@@H](F)CN2C(=O)C2(C(F)(F)F)CC(F)(F)C2)C2CC2)CCCCCCCN(C)C(=O)[C@H](Cc2cc(Cl)cnc2OC2CC2)N(C)C1=O [Example 105] ({cBuCO(3,3-F2-1-CF3)}-[Pro(trans-4-F)][Gly(cPr)][NMehhhLys(Me)]L[NMeAla(5-Cl-2-cPrO-3-pyridyl)]; lactam 3-C) | 18800 | 20 |  | 30 |  |  |  |  | 
CC(C)C[C@@H]1NC(=O)[C@@H](N(C)C(=O)[C@@H](NC(=O)[C@@H]2C[C@@H](F)CN2C(=O)C2(C(F)(F)F)CC(F)(F)C2)C2CC2)CCCCCCCNC(=O)[C@H](Cc2cc(Cl)ccc2-c2cnn(C)c2)N(C)C1=O [Example 66] ({cBuCO(3,3-F2-1-CF3)}-[Pro(trans-4-F)][Gly(cPr)][NMe(hhhLys)]L[X22]; lactam 3-C) | 12900 | 10 |  | 10 |  |  |  |  | 
CC(C)C[C@@H]1NC(=O)[C@@H](N(C)C(=O)[C@@H](NC(=O)[C@@H]2C[C@@H](F)CN2C(=O)C2(C(F)(F)F)CC(F)(F)C2)C2CC2)CCCCCCCN(C)C(=O)[C@H](Cc2cc(Cl)cnc2OC(C)C)N(C)C1=O [Example 120] ({cBuCO(3,3-F2-1-CF3)}-[Pro(trans-4-F)][Gly(cPr)][NMehhhLys(Me)]L[NMe3Pal(2-OiPr,5-Cl)]; lactam 3-C) | 9280 | 100 |  | 130 |  | 20 | 210 |  | 
CC(C)C[C@@H]1NC(=O)[C@@H](N(C)C(=O)[C@@H](NC(=O)[C@@H]2C[C@@H](F)CN2C(=O)C2(C(F)(F)F)CC3(CCC3)C2)C2CC2)CC=CCCCCN(C)C(=O)[C@H](Cc2cc(Cl)ccc2Cl)N(C)C1=O [Example 15] | 7850 | 180 |  | 550 |  | 20 | 1040 |  | 
Cc1ncc(-c2ccc(Cl)cc2C[C@H]2C(=O)N(C)CCCCCCC[C@H](N(C)C(=O)[C@@H](NC(=O)[C@@H]3C[C@@H](F)CN3C(=O)C3(C(F)(F)F)CC(F)(F)C3)C3CC3)C(=O)N[C@@H](CC(C)C)C(=O)N2C)s1 [Example 75] ({cBuCO(3,3-F2-1-CF3)}-[Pro(trans-4-F)][Gly(cPr)][NMehhhLys(Me)]L[X211]; lactam 3-C) | 5890 | 10 |  | 20 |  | 20 | 440 |  | 
CC(C)C[C@@H]1NC(=O)[C@@H](N(C)C(=O)[C@@H](NC(=O)[C@@H]2C[C@@H](F)CN2C(=O)C2(C(F)(F)F)CC(F)(F)C2)C2CC2)CC=CCCCCNC(=O)[C@H](Cc2cc(Cl)ccc2Cl)N(C)C1=O (single isomer, unassigned) [Example 6-P2] | 15600 | 40 |  | 70 |  | 20 | 240 |  | 
CC(C)C[C@@H]1NC(=O)[C@@H](N(C)C(=O)[C@@H](NC(=O)[C@@H]2C[C@@H](F)CN2C(=O)C2(C(F)(F)F)CC(F)(F)C2)C2CC2)CC=CCCCCNC(=O)[C@H](Cc2cc(Cl)ccc2C2=CCN(C)CC2)N(C)C1=O (single isomer, unassigned) [Example 56-P2] | 3760 | 190 |  | 430 |  | 30 |  | 590 | 
CC(C)C[C@@H]1NC(=O)[C@@H](N(C)C(=O)[C@@H](NC(=O)[C@@H]2C[C@@H](F)CN2C(=O)C2(C(F)(F)F)CC(F)(F)C2)C2CC2)CCCCCCCN(C)C(=O)[C@H](Cc2cc(Cl)ccc2Cl)N(C)C1=O [Example 25] ({cBuCO(3,3-F2-1-CF3)}-[Pro(trans-4-F)][Gly(cPr)][NMehhhLys(Me)]L[NMePhe(2,5-Cl2)]; lactam 3-C) | 8070 | 30 |  | 40 |  | 20 | 230 |  | 
CC(C)C[C@@H]1NC(=O)[C@@H](N(C)C(=O)[C@@H](NC(=O)[C@@H]2C[C@@H](F)CN2C(=O)C2(C(F)(F)F)CC(F)(F)C2)C2CC2)CC=CCCCCNC(=O)[C@H](Cc2cc(Cl)ccc2C2=CCN(C)CC2)N(C)C1=O (single isomer, unassigned) [Example 56-P1] | 5760 | 470 |  | 1020 |  | 40 |  | 860 | 
CC(C)C[C@@H]1NC(=O)[C@@H](N(C)C(=O)[C@@H](NC(=O)[C@@H]2C[C@@H](F)CN2C(=O)C2(C(F)(F)F)CC(F)(F)C2)C2CC2)CC=CCCCCNC(=O)[C@H](Cc2cc(Cl)ccc2Cl)N(C)C1=O (single isomer, unassigned) [Example 6-P1] | 16400 | 50 |  | 90 |  | 20 | 500 |  | 
CC(=O)N1CC=C(c2ccc(Cl)cc2C[C@H]2C(=O)NCCCCCCC[C@H](N(C)C(=O)C(NC(=O)[C@@H]3C[C@@H](F)CN3C(=O)C3(C(F)(F)F)CC(F)(F)C3)C3CC3)C(=O)N[C@@H](CC(C)C)C(=O)N2C)C(C)(C)C1 (stereo partly drawn) [Example 277] ({cBuCO(3,3-F2-1-CF3)}-[Pro(trans-4-F)][ξGly(cPr)][NMe(hhhLys)]L[X160]; lactam 3-C) | 3820 | 330 |  | 360 |  | 20 |  | 600 | 
CC(C)C[C@@H]1NC(=O)[C@@H](N(C)C(=O)[C@@H](NC(=O)[C@@H]2C[C@@H](F)CN2C(=O)C2(C(F)(F)F)CC(F)(F)C2)C2CC2)CCCCCCCN(C)C(=O)[C@H](Cc2cc(Cl)ccc2-c2ccc[nH]c2=O)N(C)C1=O [Example 208] ({cBuCO(3,3-F2-1-CF3)}-[Pro(trans-4-F)][Gly(cPr)][NMehhhLys(Me)]L[X123]; lactam 3-C) |  | 830 | 20 | 1960 | 6400 |  |  |  | 210
CC(C)C[C@@H]1NC(=O)[C@@H](N(C)C(=O)[C@@H](NC(=O)[C@@H]2C[C@@H](F)CN2C(=O)C2(C(F)(F)F)CC(F)(F)C2)C2CC2)CCCCCCCNC(=O)[C@H](Cc2cc(Cl)ccc2C2=CCN(C(=O)C(C)(C)C)CC2)N(C)C1=O [Example 99] ({cBuCO(3,3-F2-1-CF3)}-[Pro(trans-4-F)][Gly(cPr)][NMe(hhhLys)]L[X122]; lactam 3-C) |  | 20 |  | 30 |  | 20 | 1540 | 20 | 
CC(C)C[C@@H]1NC(=O)[C@@H](N(C)C(=O)[C@@H](NC(=O)[C@@H]2C[C@@H](F)CN2C(=O)C2(C(F)(F)F)CC(F)(F)C2)C2CC2)CCCCCCCN(C)C(=O)[C@H](Cc2cc(Cl)ccc2Oc2ncccn2)N(C)C1=O [Example 155] ({cBuCO(3,3-F2-1-CF3)}-[Pro(trans-4-F)][Gly(cPr)][NMehhhLys(Me)]L[NMePhe(5-Cl,2-O(2-Pym))]; lactam 3-C) |  | 10 |  | 20 |  | 20 | 410 | 100 | 
CC(C)C[C@@H]1NC(=O)[C@@H](N(C)C(=O)[C@@H](NC(=O)[C@@H]2C[C@@H](F)CN2C(=O)C2(C(F)(F)F)CC(F)(F)C2)C2CC2)CC=CCCCCN(C)C(=O)[C@H](Cc2cc(F)ccc2-c2cncnc2)N(C)C1=O [Example 38] |  | 60 |  | 160 |  | 20 | 1760 | 180 | 
CC(C)C[C@@H]1NC(=O)[C@@H](N(C)C(=O)[C@@H](NC(=O)[C@@H]2C[C@@H](F)CN2C(=O)C2(C(F)(F)F)CC(F)(F)C2)C2CC2)CCCCCCCNC(=O)[C@H](Cc2cc(Cl)cnc2OC2CC2)N(C)C1=O [Example 103] ({cBuCO(3,3-F2-1-CF3)}-[Pro(trans-4-F)][Gly(cPr)][NMe(hhhLys)]L[NMeAla(5-Cl-2-cPrO-3-pyridyl)]; lactam 3-C) |  | 30 |  | 50 |  | 20 | 350 | 60 | 
CCN1CCCCCCC[C@H](N(C)C(=O)[C@@H](NC(=O)[C@@H]2C[C@@H](F)CN2C(=O)C2(C(F)(F)F)CC(F)(F)C2)C2CC2)C(=O)N[C@@H](CC(C)C)C(=O)N(C)[C@@H](Cc2cc(Cl)ccc2-c2ccc(N3CCOCC3)cc2)C1=O [Example 404] |  | 20 |  | 30 |  | 20 | 1530 | 20 | 
